Results: patent US20200129482A1, “TREATMENT OF NON-SMALL CELL LUNG CANCER” (AbbVie Inc., priority 2017, published 2020)
Entries after “also recorded” stand apart in the source; their conditions may differ.

Tests used:
[1] = tested on: NSCLC patients; test: M10-898 clinical trial: survival by LSP status, C/P+veliparib vs C/P; assay type: in vivo, human; details: C/P+veliparib vs carboplatin/paclitaxel (C/P), FIG. 1 left
Source text: (§1) Time to death (overall survival, OS) for a given subject was defined as the number of days from the date that the subject was randomized to the date of the subject's death. All events of death were included, regardless of whether the event occurred while the subject was still taking veliparib/placebo or had previously discontinued veliparib/placebo.
(§2) Tumor samples for study were from biopsies taken prior to entry onto veliparib clinical trials M10-898 and M11-089. Tumor DNA/RNA was obtained by macrodissecting tumor area (>50% tumor content) from formalin-fixed, paraffin-embedded tumor slides. RNA and DNA was isolated using AllPrep kit (Qiagen).
RNAseq RPKM data of 52 LSP genes of Table 1 were obtained from sequenced samples of M10-898 clinical trial (https://clinicaltrials.gov/ct2/show/NCT01560104), purchased tissues and M11-089 (https://clinicaltrials.gov/ct2/show/NCT02106546). The RPKM data was log transformed and normalized in order to adjust for batch effects before entering the analyses. […]
FIG. 1 represents the impact of treatment and patient outcome in M10-898 as a function of LSP status in M10-898 (left) and M11-089 (right). […] The restricted mean survival time was calculated and is represented on the Y-axis.

[2] = tested on: NSCLC patients; test: M11-089 clinical trial: survival by LSP status or stemness score, C/P+veliparib vs C/P; assay type: in vivo, human; details: for median overall survival in LSP- and LSP+ patients / survival (restricted mean survival time, hazard ratio) as a function of LSP status: M11-089; for median overall survival in LSP- and LSP+ patients: C/P+veliparib vs C/P alone, FIG. 2; for survival (restricted mean survival time, hazard ratio) as a function of LSP status: C/P+veliparib vs carboplatin/paclitaxel (C/P), LSP+ vs LSP- patients, FIG. 1 right; for survival in relation to stemness score (mRNAsi): M11-089 samples, stemness score >=0.5 vs <0.5, FIGS. 4 and 5
Source text: as §1, §2
RNAseq RPKM data of 52 LSP genes of Table 1 were obtained from sequenced samples of M10-898 clinical trial (https://clinicaltrials.gov/ct2/show/NCT01560104), purchased tissues and M11-089 (https://clinicaltrials.gov/ct2/show/NCT02106546). The RPKM data was log transformed and normalized in order to adjust for batch effects before entering the analyses. Unsupervised Clustering was performed on 52 LSP genes from M10-898 and purchased tissues to form 3 clusters of subtypes (AD (Adenocarcinoma), NE (Neuroendocrine), SQ (Squamous)), according to the consistency of known histology defined biologically distinct subtypes. The 52 LSP genes from M10-898 and purchased tissues together with the AD vs. nonAD labelling from unsupervised clustering is served as the training data. A shrunken centroid classifier is built based on the training data. The final classifier takes normalized RPKM data of 52 LSP genes as input, and outputs the probability of being nonAD subtype (prob (AD)=1-prob (nonAD)) for each RNAseq sample from M11-089. The subtype calls (nonAD vs. AD) is based on the probability strength. The subtype call will be labelled unknown If the absolute logarithm of odds (defined as Prob (nonAD)/Prob (AD)) is less than 0.15.
FIG. 1 represents the impact of treatment and patient outcome in M10-898 as a function of LSP status in M10-898 (left) and M11-089 (right). Patients were categorized as LSP− or LSP+ using RNA expression as depicted on the x-axis. Patients treated with carboplatin/paclitaxel (C/P) are listed in dotted lines, patients treated with C/P+veliparib (V) are listed in solid lines. The restricted mean survival time was calculated and is represented on the Y-axis.
Summary statistics for each comparison are shown below FIG. 2.
We examined the M11-089 samples to relate the stemness index to survival with Veliparib. In general, an index ranging from 0 to 1 is created for each tumor sample. Tumor cells closer to 1 are more similar to stem cells and more aggressive than tumor cells closer to 0.
We derived the stemness score from our samples based on stemness Index Derived using OCLR (mRNAsi) (T. M. Matta, et al., Cell, 2018, 173(2): 338-354), and methodology and code reference is based on the public available information (http://tcgabiolinks.fmrp.usp.br/PanCanStem/mRNAsi.html). The log gene expression for m11-089 is the batch effect corrected combined batch 1,2,3,4 data.

`C[C@]1(c2nc3c(C(N)=O)cccc3[nH]2)CCCN1` [Veliparib, veliparib] was tested, and the “survival (restricted mean survival time, hazard ratio) as a function of LSP status” value [1] was “statistically significant survival advantage only in the LSP+ population”, the “survival (restricted mean survival time, hazard ratio) as a function of LSP status” value ([1]; listed as veliparib) was “benefit observed in signature subgroup” and the “median overall survival in LSP- and LSP+ patients” value [2] was “statistically significant survival advantage only in the LSP+ population”. For the same compound, the “median overall survival in LSP- and LSP+ patients” value ([2]; listed as veliparib) was “increased Overall Survival (OS) observed in LSP positive NSCLC patients”, the “survival (restricted mean survival time, hazard ratio) as a function of LSP status” value [2] was “statistically significant survival advantage only in the LSP+ population” and the “survival (restricted mean survival time, hazard ratio) as a function of LSP status” value ([2]; listed as veliparib) was “benefit observed in signature subgroup”. For the same compound, the “survival in relation to stemness score (mRNAsi)” value [2] was “better survival” and the “survival in relation to stemness score (mRNAsi)” value ([2]; listed as veliparib) was “better survival; also recorded: provides a benefit to subgroup of patients”.
